Reference: patent US8461183B2, “PPAR agonist compounds, preparation and uses” (Genfit, priority 2008, dated 2013)

Tests used:
hPPARα = target: T1, hPPARα (Homo sapiens, UniProt Q07869); test: Gal4-hPPARα chimera transactivation (luciferase) in COS-7 cells; format: cell-based; conditions: COS-7 cells, Gal4-hPPARα, 24 hours
T1 construct: corresponding to the DEF domains (structural elements of the promoter of the PPARs: D=hinge, EF=ligand fixation domain and AF2 fixation site); expressed in transfected cells; host or cells: COS-7 (monkey kidney fibroblasts)
T1 sequence (Q07869 239-466 limits assumed): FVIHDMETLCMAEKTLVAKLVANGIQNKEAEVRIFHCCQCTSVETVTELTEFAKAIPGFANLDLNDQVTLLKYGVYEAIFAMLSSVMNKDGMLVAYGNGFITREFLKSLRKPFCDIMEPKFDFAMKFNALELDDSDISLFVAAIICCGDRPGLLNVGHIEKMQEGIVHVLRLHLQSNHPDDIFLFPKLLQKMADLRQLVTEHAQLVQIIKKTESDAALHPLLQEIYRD
Method in brief: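 COS-7 cells transiently co-transfected with Gal4 DBD–human PPARα, γ or δ DEF-domain chimeras plus Gal4(RE)_TkpGL3 luciferase reporter (1/10), seeded serum-free, then compound-treated 24 h at 37 °C in 1% Ultroser. Luciferase read after lysis; EC50 and TOP % relative to maximal activation by fenofibric acid (α), rosiglitazone (γ) or GW501516 (δ).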

hPPARγ = target: T2, hPPARγ (Homo sapiens, UniProt P37231); test: Gal4-hPPARγ chimera transactivation (luciferase) in COS-7 cells; format: cell-based; conditions: 24 hours
T2 construct: corresponding to the DEF domains (structural elements of the promoter of the PPARs: D=hinge, EF=ligand fixation domain and AF2 fixation site); expressed in transfected cells; host or cells: COS-7 (monkey kidney fibroblasts)
T2 sequence (P37231 238-503 limits assumed): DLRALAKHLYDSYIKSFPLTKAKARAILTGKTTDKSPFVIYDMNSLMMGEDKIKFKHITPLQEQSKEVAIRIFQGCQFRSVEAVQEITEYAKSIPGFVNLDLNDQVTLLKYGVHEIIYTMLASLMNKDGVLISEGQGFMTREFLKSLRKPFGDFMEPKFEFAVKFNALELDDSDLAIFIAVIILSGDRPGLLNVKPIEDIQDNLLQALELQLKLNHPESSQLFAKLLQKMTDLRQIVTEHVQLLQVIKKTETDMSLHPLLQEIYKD
Method in brief: (§1)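 COS-7 cells transfected with Gal4-DBD fused to human PPARγ or PPARδ DEF (hinge/ligand-binding) domain plus Gal4(RE)_TkpGL3 luciferase reporter (1:10).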

hPPARδ = target: T3, hPPARδ (Homo sapiens, UniProt Q03181); test: Gal4-hPPARδ chimera transactivation (luciferase) in COS-7 cells; format: cell-based; conditions: COS-7 cells, Gal4-hPPARδ, 24 hours
T3 construct: corresponding to the DEF domains (structural elements of the promoter of the PPARs: D=hinge, EF=ligand fixation domain and AF2 fixation site); expressed in transfected cells; host or cells: COS-7 (monkey kidney fibroblasts)
T3 sequence (Q03181 211-439 limits assumed): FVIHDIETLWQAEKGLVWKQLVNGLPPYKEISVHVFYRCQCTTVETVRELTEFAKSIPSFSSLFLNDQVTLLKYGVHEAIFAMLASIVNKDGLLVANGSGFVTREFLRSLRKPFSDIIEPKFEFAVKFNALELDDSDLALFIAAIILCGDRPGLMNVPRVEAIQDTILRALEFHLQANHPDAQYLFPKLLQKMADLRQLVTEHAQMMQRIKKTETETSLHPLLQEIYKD
Method in brief: as §1

[1] = test system: 3T3-L1 murine pre-adipocytes; test: PPARγ functional effect: adipogenesis in 3T3-L1 pre-adipocytes (triglycerides, adiponectin); format: cell-based, Mus musculus; conditions: 3T3-L1, 9 days of treatment, 30 nM to 30 μM
Protocol: The functional effect of activation of PPARγ is evaluated in vitro on a line of pre-adipocyte cells 3T3-L1 (Thompson G M et al., 2004) by measuring the concentration of intracellular triglycerides and the concentration of adiponectin secreted in the culture medium after 9 days of treatment with the compounds according to the invention.
At confluence, the cells were then rinsed with PBS (Phosphate Buffered Saline solution) and the culture medium was replaced with DMEM 4.5 g/L glucose (10% FCS, 1% L-glutamine, 100 units/mL penicillin and 100 μg/mL streptomycin, 0.25 mM) containing a cocktail for initiation of adipocyte differentiation (IBMX (3-isobutyl-1-methylxanthine Sigma; 17018), 0.1 μM dexamethasone (Sigma; D1756) and 0.4 μM of insulin (Sigma; I2643). The cells were also treated with the compounds according to the invention (1 μL of solubilized compound/mL of medium, 200 μL per well).
After 2 days of incubation, the cells were washed with PBS and the differentiation medium was replaced with DMEM 4.5 g/L of glucose supplemented with 10% FCS, 1% L-glutamine, 100 units/mL penicillin and 100 μg/mL streptomycin, 0.4 μM insulin, and the compounds according to the invention for the purpose of completing cellular differentiation and obtaining adipocytes. The medium was changed every 2 days until total differentiation. After culture for 9 days, the treatment was stopped by withdrawing the culture medium, which was stored for assaying secreted adiponectin. The cells were then washed twice with PBS and placed in isopropanol for membrane permeabilization. The content of intracellular triglycerides was evaluated immediately.
Quantification of intracellular triglycerides was performed with the “Triglyceride Enzymatic PAP1000” kit (bioMérieux; 61238) according to the supplier's recommendations. Secreted adiponectin was measured in the culture medium using the “Mouse Adiponectin/Acrp30 Elisa Kit” kit (R&D Systems; DY1119) according to the supplier's recommendations.

3 PPAR isoforms = test: PPAR agonist properties of compound 1, different method and equipment (not described)
Protocol: The measured activities differ depending on the compound tested and the compounds according to the invention are also observed to have varying selectivity with respect to the various isoforms of hPPAR: • Certain compounds according to the invention are selective for a subtype of PPAR. […] Compound 1 of the invention was also tested for its PPAR agonist properties. […] As the measurements obtained for compound 1 were carried out according to a different method and with different equipment, relative to the other 53 compounds in the examples, the corresponding results are not presented in Table 8-1 above.

EC50 (hPPARα; luciferase, read-out: PPARα EC50)	Emax (hPPARα; relative to maximum activation obtained with fenofibric acid, read-out: PPARα TOP % (maximum activation))	EC50 (hPPARγ; luciferase, read-out: PPARγ EC50)	Emax (hPPARγ; relative to maximum activation obtained with rosiglitazone, read-out: PPARγ TOP % (maximum activation))	EC50 (hPPARδ; luciferase, read-out: PPARδ EC50)	Emax (hPPARδ; relative to maximum activation obtained with GW501516, read-out: PPARδ TOP % (maximum activation))	Structure (SMILES)	accumulation of triglycerides in adipocytes [1]	secretion of adiponectin [1]	selectivities for the 3 PPAR isoforms (3 PPAR isoforms)
304 nM	78%	1520 nM	123%	595 nM	93.9%	COc1nc(-c2ccc(C(F)(F)F)cc2)ccc1CNc1ccc(CCC(=O)O)cc1 [Cpd 36, 3-(4-(((2-methoxy-6-(4-(trifluoromethyl)phenyl)pyridin-3-yl)methyl)amino)-phenyl)propanoic acid]	dose-dependent stimulation	dose-dependent stimulation	
						COc1nc(-c2ccccc2)ccc1COc1ccc(OC(C)(C)C(=O)O)cc1 [Cpd 1, 2-(4-((2-methoxy-6-phenylpyridin-3-yl)methoxy)phenoxy)-2-methyl-propanoic acid]			comparable selectivities for the 3 PPAR isoforms
